How the values were obtained:
S. pneumoniae = experiment: ATP efflux assay; assay type: cell-based, Streptococcus pneumoniae; details: peptides 125 µg/ml (RN7-IN7 500 µg/ml)
Procedure: The amount of ATP released from pneumococcal cells incubated with hybrid peptides was measured as described previously, with a slight modification ([Tanida et al., 2006]). The ATP determination kit (Molecular Probes, Eugene, OR, USA) was used to measure the amount of ATP released based on the luciferin/luciferase method according to the manufacturer’s instructions. Briefly, S. pneumoniae were grown overnight on Columbia agar with 5% sheep blood. Bacterial suspensions were spectrophotometrically adjusted to (1 × 10^7 CFU/ml) and incubated with hybrid peptides RN7-IN10, RN7-IN9, RN7-IN8 and RN7-IN6 at 125 µg/ml and with RN7-IN7 at 500 µg/ml. The amount of ATP released form the pneumococcal cells were measured at three time points 1, 2 and 3 h. The samples were then centrifuged at 5,000 rpm for 5 min, and ATP efflux was subsequently estimated using an ATP standard curve. Values were obtained from three independent experiments. Ceftriaxone and erythromycin were used as positive controls.

ICR (CD-1) mice = experiment: In vivo toxicity in mice (SC, IN, IP routes); design: Aspartate aminotransferase, AST / Alanine transaminase, ALT / Alkaline phosphatase, ALP / Creatinine / Urea / Total bilirubin: unit not given here; details: for Eosinophil / Erythrocytes, RBC / Granulocytes / Hematocrit, HCT / Hemoglobin Hgb / Lymphocytes / Mean corpuscular haemoglobin concentration, MCHC / Mean corpuscular haemoglobin, MCH / Mean corpuscular volume, MCV / Monocytes / White blood cells, WBC / platelet Counts, PLT / Alanine transaminase, ALT / Alkaline phosphatase, ALP / Aspartate aminotransferase, AST / Creatinine / Total bilirubin / Urea: 3 doses (1hr, 12hr, 24hr), RN7-IN9, RN7-IN6 10 mg/kg, day 7, mean±SD, 4 mice; for Alanine transaminase, ALT / Alkaline phosphatase, ALP / Aspartate aminotransferase, AST / Creatinine / Total bilirubin / Urea: serum
Procedure: In this study, 4-week old male, pathogen free ICR (CD-1) mice were purchased from InVivos (Lim Chu Kang, Singapore) and used to assess the in vivo toxicity and antibacterial efficacy of the novel peptides, as these animals are by far the most commonly used model for the study of pneumococcal disease ([Chiavolini, Pozzi & Ricci, 2008]). The mice were kept in ventilated polycarbonate cages (12 h light/dark cycle, 20 ± 2 °C and 55% relative humidity). All mice were familiarized for seven days before any experimental procedure and were given unlimited pellets and water ad libitum. All animal experimentations were conducted according to the guidelines approved by Faculty of Medicine Institutional Animal Care and Use Committee (FOM IACUC), University of Malaya (ethics Reference no. : 2013-07-15/MMBTR/SDS).
In order to evaluate the possible toxic effects correlated to peptides administered in mice, four hybrid peptides RN7-IN10, RN7-IN9, RN7-IN8 and RN7-IN6 were chosen for in vivo toxicity assessment, due to their promising in vitro antibacterial activity ([Jindal et al., 2015]). Mice were separated into four groups (each with four mice) and were injected with respective peptides at 1 h, 12 h, and 24 h (three-dose regimen) via IP, SC, and IN administration routes. The hybrid peptides were first administered at high doses (100 mg/kg for IP route, 100 mg/kg for SC routes and 20 mg/kg for IN route). Any abnormal behavior was recorded and survival of mice was noted as well. In case adverse effects such as high physical stress, severe lethargy, physical inactiveness, and/or death were detected, lower graded doses were given. All the administered mice were monitored for seven days or until death occurred. At day seven post administration, all animals were sacrificed and blood and organs were collected. Untreated mice were used as a control group.
Mice used to evaluate the in vivo toxicity and antibacterial activity of the hybrid peptides using the subcutaneous (SC) and intranasal (IN) administration routes, were anesthetized using a combination of a standard dose of xylazine (ilium xylazil-20, 10 mg/kg) and ketamine (Narketan®-10, 100 mg/kg) through intraperitoneal (IP) injection. After seven days of treatment, the in vivo toxicity and antibacterial efficacy experiments were ended and the surviving mice were anesthetized. Blood samples for Hematological and biochemical analysis were collected via cardiac puncture using a 25G syringe (BD bioscience, San Jose, CA, USA). Whole blood for heamatological analysis was collected in 500 µl dipotassium EDTA microtainer tubes (BD Bioscience, USA). About 500 µl of blood collected an eppedorff tube and centrifuged at 8000 rpm for 5 min and then the serum was transferred into a new 1.5 ml tube for biochemistry analysis. The mice were then euthanized by cervical dislocation, dissected and the following organs were collected for histopathology evaluation: lung, kidney, brain, liver and spleen.
For whole blood analysis, the parameters were number of red cells (RBC), number of white cells (WBC), lymphocytes, monocytes, eosinophil, granulocytes, haemoglobin (Hgb), mean corpuscular volume (MCV), hematocrit (HCT), platelet Counts (PLT), Mean corpuscular haemoglobin (MCH) and corpuscular haemoglobin concentration (MCHC). For biochemistry analysis, the parameters were alanine transaminase (ALT), creatinine, alkaline phosphatase (ALP), aspartate aminotransferase (AST), total bilirubin and urea.
The following organs were collected from all the dissected mice: lung, kidney, brain, spleen, and liver. All tissues were fixed in 10% (v/v) buffered formalin and processed for paraffin embedding. Hematoxylin–eosin (HE) was used to stain the histological sections at the histopathology laboratory, Veterinary Laboratory Service Unit, University Putra Malaysia (UPM).

[1] = 1 × 10^7 CFU/ml, luciferin/luciferase, ATP standard curve, mean ± SD, three independent experiments
[2] = IN, head doses: RN7-IN10, RN7-IN8 20 mg/kg
[3] = SC, head doses: RN7-IN10, RN7-IN8 20 mg/kg

Substance: FLGGLIKWKWPWWPWRR-NH2 [RN7-IN10, hybrid peptide of ranalexin (residues 1-7) and indolicidin (residues 4-13)]
- ATP released from pneumococcal cells after 1 h (S. pneumoniae; [1]): 54.5 ± 4.7 pM
- ATP released from pneumococcal cells after 3 h (S. pneumoniae; [1]): 25.42 ± 3.51 pM
- ATP released, Average 1hr (S. pneumoniae; raw data sheet, mean of 3): 54.4965 pM
- ATP released, Average 2hr (S. pneumoniae; raw data sheet, mean of 3): 41.9293 pM
- ATP released, Average 3hr (S. pneumoniae; raw data sheet, mean of 3): 25.4295 pM
- Eosinophil (ICR (CD-1) mice; [2]): 2.7±0.97%
- Erythrocytes, RBC (ICR (CD-1) mice; [2]): 9.62±0.79 10^6/mm^3
- Granulocytes (ICR (CD-1) mice; [2]): 66.6±21.64%
- Hematocrit, HCT (ICR (CD-1) mice; [2]): 47.95±3.18%
- Hemoglobin Hgb (ICR (CD-1) mice; [2]): 15.47 ± 1.07 g/dL
- Lymphocytes (ICR (CD-1) mice; [2]): 58.5±7.53%
- Mean corpuscular haemoglobin concentration, MCHC (ICR (CD-1) mice; [2]): 28.3 ± 8.15 g/dL
- Mean corpuscular haemoglobin, MCH (ICR (CD-1) mice; [2]): 20 ± 7.87 pg
- Mean corpuscular volume, MCV (ICR (CD-1) mice; [2]): 50.75±1.7 µm^3
- Monocytes (ICR (CD-1) mice; [2]): 2.2±0.37%
- White blood cells, WBC (ICR (CD-1) mice; [2]): 5.2±1.44 10^3/mm^3
- platelet Counts, PLT (ICR (CD-1) mice; [2]): 619.5±100.42 10^3/mm^3
- Eosinophil (ICR (CD-1) mice; IP, RN7-IN10, RN7-IN8 20 mg/kg): 2.23±1.61%
- Erythrocytes, RBC (ICR (CD-1) mice; IP, RN7-IN10, RN7-IN8 20 mg/kg): 9.16±0.92 10^6/mm^3
- Granulocytes (ICR (CD-1) mice; IP, RN7-IN10, RN7-IN8 20 mg/kg): 46.27±16.41%
- Hematocrit, HCT (ICR (CD-1) mice; IP, RN7-IN10, RN7-IN8 20 mg/kg): 47.67±5.6%
- Hemoglobin Hgb (ICR (CD-1) mice; IP, RN7-IN10, RN7-IN8 20 mg/kg): 15.85 ± 1.27 g/dL
- Lymphocytes (ICR (CD-1) mice; IP, RN7-IN10, RN7-IN8 20 mg/kg): 51.03±16.69%
- Mean corpuscular haemoglobin concentration, MCHC (ICR (CD-1) mice; IP, RN7-IN10, RN7-IN8 20 mg/kg): 33.85 ± 0.60 g/dL
- Mean corpuscular haemoglobin, MCH (ICR (CD-1) mice; IP, RN7-IN10, RN7-IN8 20 mg/kg): 17.6 ± 0.46 pg
- Mean corpuscular volume, MCV (ICR (CD-1) mice; IP, RN7-IN10, RN7-IN8 20 mg/kg): 50.75±2.06 µm^3
- Monocytes (ICR (CD-1) mice; IP, RN7-IN10, RN7-IN8 20 mg/kg): 2.8±0.5%
- White blood cells, WBC (ICR (CD-1) mice; IP, RN7-IN10, RN7-IN8 20 mg/kg): 4.2±0.55 10^3/mm^3
- platelet Counts, PLT (ICR (CD-1) mice; IP, RN7-IN10, RN7-IN8 20 mg/kg): 535±150.11 10^3/mm^3
- maximum IP dose at which no signs of stress or abnormal behavior were evident (non-toxic dose) (ICR (CD-1) mice; IP, doses at 1 h, 12 h, 24 h, no death up to seven days): 20 mg/kg
- Eosinophil (ICR (CD-1) mice; [3]): 2.82±0.25%
- Erythrocytes, RBC (ICR (CD-1) mice; [3]): 8.04±1.18 10^6/mm^3
- Hematocrit, HCT (ICR (CD-1) mice; [3]): 41.5±3.7%
- Hemoglobin Hgb (ICR (CD-1) mice; [3]): 13.75 ± 1.77 g/dL
- Lymphocytes (ICR (CD-1) mice; [3]): 52.2±3.3%
- Mean corpuscular haemoglobin concentration, MCHC (ICR (CD-1) mice; [3]): 34.45 ± 1.35 g/dL
- Mean corpuscular haemoglobin, MCH (ICR (CD-1) mice; [3]): 17.08 ± 0.4 pg
- Mean corpuscular volume, MCV (ICR (CD-1) mice; [3]): 50±2.16 µm^3
- Monocytes (ICR (CD-1) mice; [3]): 2.2±0.28%
- White blood cells, WBC (ICR (CD-1) mice; [3]): 3.8±0.2 10^3/mm^3
- platelet Counts, PLT (ICR (CD-1) mice; [3]): 568.75±81.73 10^3/mm^3
- Alanine transaminase, ALT (ICR (CD-1) mice; [2]): 66.9±17.02
- Alkaline phosphatase, ALP (ICR (CD-1) mice; [2]): 133.3±10.1
- Aspartate aminotransferase, AST (ICR (CD-1) mice; [2]): 172±8.78
- Creatinine (ICR (CD-1) mice; [2]): 40.94±0.83
- Total bilirubin (ICR (CD-1) mice; [2]): 2.15±0.14
- Urea (ICR (CD-1) mice; [2]): 9.3±1.68
- Alanine transaminase, ALT (ICR (CD-1) mice; IP, RN7-IN10, RN7-IN8 20 mg/kg): 52.76±12.22
- Alkaline phosphatase, ALP (ICR (CD-1) mice; IP, RN7-IN10, RN7-IN8 20 mg/kg): 124.33±10.6
- Aspartate aminotransferase, AST (ICR (CD-1) mice; IP, RN7-IN10, RN7-IN8 20 mg/kg): 181.66±38.27
- Creatinine (ICR (CD-1) mice; IP, RN7-IN10, RN7-IN8 20 mg/kg): 38.1±6.97
- Total bilirubin (ICR (CD-1) mice; IP, RN7-IN10, RN7-IN8 20 mg/kg): 1.82±0.03
- Urea (ICR (CD-1) mice; IP, RN7-IN10, RN7-IN8 20 mg/kg): 9.6±2.11
- Alanine transaminase, ALT (ICR (CD-1) mice; [3]): 51.25±11.9
- Aspartate aminotransferase, AST (ICR (CD-1) mice; [3]): 175±25.41
- Creatinine (ICR (CD-1) mice; [3]): 37.8±3.43
- Total bilirubin (ICR (CD-1) mice; [3]): 2.1±0.35
- Urea (ICR (CD-1) mice; [3]): 9.2±0.8

— article PMC5632533, “Mechanisms of action and in vivo antibacterial efficacy assessment of five novel hybrid peptides derived from Indolicidin and Ranalexin against Streptococcus pneumoniae” (PeerJ, 2017)
